Reference: patent US20240299376A1, “METHOD OF TREATING A CONDITION USING A […] EFFECTIVE DOSE OF 1-(1-OXO-1,2-DIHYDROISOQUINOLIN-5-YL)-5-(TRIFLUOROMETHYL)-N-(2-(TRIFLUOROMETHYL)PYRIDIN-4-YL)-1H-PYRAZOLE-4-CARBOXAMIDE” (Janssen Pharmaceutica NV, priority 2021, published 2024)
Where two headings read alike, the source gives them in different places.

Assays:
[1] = Single IV dose plasma PK; type: in vivo, dog
Protocol: (§1) Single intravenous (IV) dose PK was conducted in mice (two strains), rats, monkeys, and dogs at a dose of 1 mg/kg in 70% PEG400 (PEG400/water 70:30) by bolus injection. The time course for plasma sample was optimized to fully characterize the disposition profile in each species. PK analysis was by non-compartmental method.

[2] = tested on: OCI-LY10 human DLBCL xenografts; assay: Antitumor efficacy in established OCI-LY10 human DLBCL xenografts; type: in vivo, NSG mice; settings: 3.5 weeks
Protocol: Tumor volume was calculated using the formula: tumor volume (mm^3)=(Dxd^2/2); where ‘D’ represents the larger diameter, and ‘d’ the smaller diameter of the tumor as determined by caliper measurements. Tumor volume data was graphically represented as the mean tumor volume±SEM.
Percent tumor growth inhibition (TGI) was defined as the difference between mean tumor volumes of the treated and control group, calculated as
where TVc is the mean tumor volume of a given control group and TVt is the mean tumor volume of the treatment group. As defined by National Cancer Institute criteria, ≥60% TGI is considered biologically significant.
Group tumor volumes are graphed as the mean+SEM. Mice were implanted SC on the right flank on Day 0.
OCY-LY10 cells were maintained at 37° C. in a humidified atmosphere (5% CO2, 95% air), in RPMI-1640 medium with GlutaMAX™, supplemented with 10% Fetal Bovine Serum (Heat Inactivated at 57° C.) and 1% Penicillin-Streptomycin. Each mouse received 1×10^6 OCI-LY10 cells in serum-free RPMI-1640 medium with Matrigel in 1:1 ratio in a total volume of 0.2 mL. Cells were implanted SC in the right flank using a 1 mL syringe and a 26-gauge needle. The day of tumor implantation was designated as Day 0.
For study 4, study animals were randomly assigned into treatment groups, when the mean OCI-LY10 tumor volume reached 169 mm^3 (Day 15 post-tumor cell implantation). Treatment was initiated the day after randomization (Day 16). Treatment for the antitumor efficacy study lasted for 24 days until Day 40, when most animals in the Vehicle control group reached ethical tumor volume limits. […] Blood was collected from the retro-orbital sinus and submitted for bioanalytical analysis.

[3] = Single IV dose plasma PK; type: in vivo, rat; settings: for C0 / Vd / AUC(0-inf) / clearance / half-life: male, plasma, S-D; for C0 / Vd: Rat; for Vd / AUC(0-inf) / clearance / half-life: iv, 1 mg/kg; for Vd: read-out: Vdss
Protocol: as §1

[4] = tested on: Rec1 (Ibrutinib sensitive MCL); assay: Anti-proliferative activity, DLBCL cell line panel; type: cell-based; settings: Homo sapiens, Rec1, 192 h; antiproliferation after 8 days of treatment
[5] = male, plasma, Dog, beagle, 3M, 1 mg/kg IV in 70% PEG400, mean
[6] = Sprague-Dawley (S-D), rat, 3M, 1 mg/kg IV in 70% PEG400 (-AAA), mean
[7] = Sprague-Dawley (S-D), rat, 6M, 1 mg/kg IV, dosed as the -ZAF salt

O=C(Nc1ccnc(C(F)(F)F)c1)c1cnn(-c2cccc3c(=O)[nH]ccc23)c1C(F)(F)F [Compound A, 1-(1-oxo-1,2-dihydroisoquinolin-5-yl)-5-(trifluoromethyl)-N-[2-(trifluoromethyl)pyridin-4-yl]-1H-pyrazole-4-carboxamide]
CL as fraction of liver blood flow (LBF) ([1]; dog, LBF 30.9 mL/min/kg): 3.0% | AUC(0-inf) [1, 5]: 23100 ng·h/mL | C0 [1, 5]: 2070 ng/mL | clearance [1, 5]: 0.772 mL/min/kg | half-life [1, 5]: 16.9 h | Vd ([1]; male, plasma, Dog, beagle, 3M, 1 mg/kg IV in 70% PEG400, mean, read-out: Vdss): 1.01 L/kg | TGI ([2]; 3 mg/kg BID PO, not statistically significant): 11% | TGI ([2]; 10 mg/kg BID PO): 41% | TGI ([2]; 30 mg/kg BID PO): 54% | TGI ([2]; 100 mg/kg BID PO): 62% | C0 ([3]; Sprague-Dawley (S-D), 6M, 1 mg/kg IV, dosed as the -ZAF salt, mean): 1450 ng/mL | Vd [3, 6]: 0.86 L/kg | Vd [3, 7]: 0.622 L/kg | AUC(0-inf) [3, 6]: 7950 ng·h/mL | clearance [3, 6]: 2.15 mL/min/kg | half-life [3, 6]: 10 h | AUC(0-inf) [3, 7]: 9780 ng·h/mL | clearance [3, 7]: 1.7 mL/min/kg | half-life [3, 7]: 5.33 h | C0 ([3]; Sprague-Dawley, 3M, 1 mg/kg IV in 70% PEG400 (-AAA), mean): 2200 ng/mL | CL as fraction of liver blood flow (LBF) ([3]; rat, LBF 55.2 mL/min/kg): 1.5% | IC50 [4]: 1170 nM
